Structures can show the parent of a compound that is named as a salt.

This assay deals with calcium- and phospholipid-dependent protein kinase (PKC). In words: Inhibition of the activity of protein kinase C (incorporation of P^32-labelled phosphate into histone H-1). It counts as biochemical. As to conditions: PKC enriched from rat brain; histone H-1 substrate; 5 min, 30° C.; pH 7.5. The text has this: For the clarification of the inhibiting influence of compounds of formula I according to the present invention on the calcium- and phospholipid-dependent protein kinase (PKC), this enzyme activity was enriched from rat brain. Using the purification steps described in the literature (J. Biol. Chem., 260, 15718-15722/1985), in the case of a purification consisting of two steps, there was utilized the property of the enzyme to bind to cell membranes in the presence of calcium and to be dissolved off again by calcium chelators (EGTA). In the first enrichment step, there took place the binding of the PKC to membranes of the rat brain and in the second step on so-called inside-out vesicles or erythrocytes. After dissolving off from the erythrocyte membranes and rebuffering, the PKC preparation was present in 10 mM HEPES, 1 mM DTT, 0.1% PEG 20000, pH 7.5. Under these conditions, it could be stored at -70° C. for several months without loss of activity.
The activity of the enzyme was determined via the incorporation of P^32 -labelled phosphate into the protein histone H-1 (Sigma Type III) which can be phosphorylated by PKC.
The test thereby contains the following components: 50 mM HEPES-NaOH (pH 7.5), 5 mM magnesium chloride, 1 mM DTT, 4 μm. free calcium ions, 10 μMaTP, 1 μg phosphatidylserine, 0.2 μg 1,2-diolein, as well as 40 μg histone H-1 and optionally the test substance.
The batch is preincubated for 4 minutes at 30° C. and the reaction then started by the addition of 5 nM PKC. After incubating for 5 minutes at 30° C., the reaction is stopped with 10% TCA and the samples then filtered off. The phosphate incorporation is determined by Cerenkov counting in a scintillation counter. The kinase activity measured in the absence of the test substance was, in each case, taken as being 100% and the inhibiting action of the compounds of formula I referred thereto as percentages.
As a reminder, the IC50 is the point on the concentration scale where inhibition reaches its midpoint. As to `CCCCCCCCCCCCCCCCCCOc1cn(Cc2ccccc2)c(CNCCCNC(C)c2ccccc2)cc1=O` (racemic) [Example 83, (±)-1-Benzyl-5-octadecyloxy)-2-{N-[3-(1-phenylethyl)aminopropyl]-aminomethyl}-4(1H)-pyridone·trihydrochloride], the IC50 is 2600 nM.

On to `CCCCCCCCCCCCCCCCCCOc1cn(Cc2ccccc2)c(CN2CCN(C(C)c3ccccc3)CC2)cc1=O` (racemic) [Example 97, (±)-1-[(1-Benzyl-5-octadecyloxy-4(1H)-pyridone-2-yl)methyl]-4-(1-phenylethyl)piperazine·trihydrochloride 3/4 H2 O], for which the IC50 turned out to be 4400 nM.

In the case of `CCCCCCCCCCCCCCCCCCOc1cn(C(C)c2ccccc2)c(CN2CCN(Cc3ccccc3)CC2)cc1=O` (racemic) [Example 98, (±)-1-[(5-Octadecyloxy-1-(1-phenylethyl)-4(1H)-pyridone-2-yl)-methyl]-4-benzylpiperazine], the IC50 came out at 5400 nM.

Take `CCCCCCCCCCCCCCCCCCOc1cn(Cc2ccccc2)c(CN2CCNCC2C)cc1=O` (racemic) [Example 102, (±)-1-[(1-Benzyl-5-octadecyloxy-4(1H)-pyridon-2-yl)methyl]-2-methylpiperazine fumarate]: the IC50 stood at 2000 nM.

Take `CCCCCCCCCCCCCCCCCCOc1cn(C(C)c2ccccc2)c(CN2CCN(Cc3ccccc3)CC2)cc1=O` (single isomer, unassigned; (+)) [Example 100, (+)-1-[(5-Octadecyloxy-1-(1-phenylethyl)-4(1H)-pyridone-2-yl)-methyl]-4-benzylpiperazine]: the IC50 was 2700 nM.

Turning to `CCCCCCCCCCCCCCCCCCOc1cn(C(C)c2ccccc2)c(CN2CCN(Cc3ccccc3)CC2)cc1=O` (single isomer, unassigned; (-)) [Example 99, (-)-1-[(5-Octadecyloxy-1-(1-phenylethyl)-4(1H)-pyridone-2-yl)-methyl]-4-benzylpiperazine], the IC50 stood at 5200 nM.

For `CCCCCCCCCCCCCCCCCCOc1cn(CCCN(C)C)c(CO)cc1=O` [Example 21, 1-(3-Dimethylaminopropyl)-2-hydroxymethyl-5-octadecyloxy-4(1H)-pyridone], the IC50 amounted to 2400 nM.

For the compound `CCCCCCCCCCCCCCCCCCOc1cn(C)c(CNCCCN(C)C)cc1=O` [Example 56, 2-[N-(3-Dimethlaminopropyl)-aminomethyl]-1-methyl-5-octadecyloxy-4(1H)-pyridone trihydrochloride hemihydrate], the IC50 worked out at 2900 nM.

Regarding `CCCCCCCCCCCCCCCCCCOc1cn(Cc2ccccc2)c(CN(C)CCN(C)C)cc1=O` [Example 57, 1-Benzyl-2-[N-(2-dimethylaminoethyl)-N-methylaminomethyl]-5-octadecyloxy-4(1H)-pyridone trihydrochloride], the IC50 came out at 1900 nM.

Take `CCCCCCCCCCCCCCCCCCOc1cn(CCC)c(CNCCCN(C)C)cc1=O` [Example 59, 2-[N-(3-Dimethylaminopropyl)aminomethyl]-5-octadecyloxy-1-propyl-4(1H)-pyridone dioxalate]: the IC50 was determined as 2900 nM.

In the case of `CCCCCCCCCCCCCCCCCCOc1cn(C)c(CNCCCN)cc1=O` [Example 60, 2-[N-(3-Aminopropyl)-aminomethyl]-1-methyl-5-octadecyloxy-4(1H)-pyridone trihydrochloride], the half-inhibitory concentration (IC50) was 2700 nM.

Turning to `CCCCCCCCCCCCCCCCCCOc1cn(Cc2ccccc2)c(CNCCCN)cc1=O` [Example 61, 2-[N-(3-Aminopropyl)-aminomethyl]-1-benzyl-5-octadecyloxy-4(1H)-pyridone trihydrochloride], the IC50 stood at 2100 nM.

Consider `CCCCCCCCCCCCCCOc1cn(Cc2ccccc2)c(CNCCCN(C)C)cc1=O` [Example 65, 1-Benzyl-2-[N-(3-dimethylaminopropyl)aminomethyl]-5-tetradecyloxy-4(1H)-pyridone dioxalate monohydrate], for which the IC50 stood at 6500 nM.

Take `CCCCCCCCCCCCCCCCCCCCOc1cn(Cc2ccccc2)c(CNCCCN(C)C)cc1=O` [Example 66, 1-Benzyl-2-[N-(3-dimethylaminopropyl)aminomethyl]-5-eicosanyloxy-4(1H)-pyridone dioxalate monohydrate]: the IC50 was determined as 2500 nM.

`CCCCCCCCCCCCCCCCCCOc1cn(CC2CCCCC2)c(CNCCCN(C)C)cc1=O` [Example 68, 1-Cyclohexylmethyl-2-[N-(3-dimethylaminopropyl)aminomethyl]-5-octadecyloxy-4(1H)-pyridone difumarate]: the IC50 came out at 1900 nM.

Turning to `CCCCCCCCCCCCCCCCCCOc1cn(-c2ccccc2)c(CNCCCN(C)C)cc1=O` [Example 70, 2-[N-(3-Dimethylaminopropyl)aminomethyl]-5-octadecyloxy-1-phenyl-4(1H)-pyridone], the IC50 worked out at 2200 nM.

As for `CCCCCCCCCCCCCCCCCCOc1cn(Cc2ccc(OC)cc2)c(CNCCCN(C)C)cc1=O` [Example 72, 2-[N-(3-Dimethylaminopropyl)aminomethyl]-1-(4-methoxybenzyl)-5-octadecyloxy-4(1H)-pyridone trihydrochloride monohydrate], the IC50 came to 3600 nM.

Consider `CCCCCCCCCCCCCCCCCCOc1cn(Cc2ccccc2)c(CN(C)C)cc1=O` [Example 73, 1-Benzyl-2-dimethylaminomethyl-5-octadecyloxy-4(1H)-pyridone oxalate hemihydrate], for which the IC50 stood at 4400 nM.

Regarding `CCCCCCCCCCCCCCCCCCOc1cn(Cc2ccccc2OC)c(CNCCCN(C)C)cc1=O` [Example 74, 2-[N-(3-Dimethylaminopropyl)aminomethyl]-1-(2-methoxybenzyl)-5-octadecyloxy-4(1H)-pyridone difumarate], the IC50 was 2100 nM.

In the case of `CCCCCCCCCCCCCCCCCCOc1cn(Cc2ccccc2)c(CN(C)Cc2ccccc2)cc1=O` [Example 75, 1-Benzyl-2-(N-benzyl-N-methylaminomethyl)-5-octadecyloxy-4(1H)-pyridone], the IC50 turned out to be 9500 nM.

As to `CCCCCCCCCCCCCCCCCCOc1cn(Cc2ccc(C)cc2)c(CNCCCN(C)C)cc1=O` [Example 76, 2-[N-(3-Dimethylaminopropyl)aminomethyl]-1-(4-methylbenzyl)-5-octadecyloxy-4(1H)-pyridone trihydrochloride hemihydrate], the IC50 is 1900 nM.

On to `CCCCCCCCCCCCCCCCCCOc1cn(Cc2ccccc2)c(CNCCCCN)cc1=O` [Example 77, 2-[N-(4-Aminobutyl)aminomethyl]-1-benzyl-5-octadecyloxy-4(1H)-pyridone trihydrochloride], for which the IC50 was determined as 2300 nM.

With `CCCCCCCC/C=C\CCCCCCCCOc1cn(Cc2ccccc2)c(CNCCCN(C)C)cc1=O` [Example 78], the IC50 is 4600 nM.

With `CCCCCCCCCCCCCCCCCCOc1cn(-c2ccc(OCc3ccccc3)cc2)c(CNCCCN(C)C)cc1=O` [Example 79, 1-(4-Benzyloxyphenyl)-2-[N-(3-dimethylaminopropyl)aminomethyl]-5-octadecyloxy-4(1H)-pyridone], the IC50 came out at 2200 nM.

For `CCCCCCCCCCCCCCCCCCOc1cn(-c2ccc(OCc3ccccc3)cc2)c(CNCCCN(C)C)cc1=O` [Example 80, 1-(4-Benzyloxyphenyl)-2-[N-(3-dimethylaminopropyl)aminomethyl]-5-octadecyloxy-4(1H)-pyridone·difumarate·2,5 H2 O], the IC50 was 2600 nM.

As for `CCCCCCCCCCCCCCCCCCOc1cn(Cc2ccc(O)cc2)c(CNCCCN(C)C)cc1=O` [Example 84], the IC50 was 3400 nM.

In the case of `CCCCCCCCCCCCCCCCCCOc1cn(-c2ccc(O)cc2)c(CNCCCN(C)C)cc1=O` [Example 85, 2-[N-(3-Dimethylaminopropyl)aminomethyl]-1-(4-hydroxyphenyl)-5-octadecyloxy-4(1H)-pyridone·trihydrochloride·0,5 H2 O], the IC50 was determined as 5800 nM.

For `CCCCCCCCCCCCCCCCCCOc1cn(Cc2ccccc2)c(CN(C)CCCN(C)C)cc1=O` [Example 89, 1-Benzyl-2-[N-(3-dimethylaminopropyl)-N-methylaminomethyl]-5-octadecyloxy-4(1H)-pyridone trihydrochloride], the IC50 was 1800 nM.

Regarding `CCCCCCCCCCCCCCCCCCOc1cn(Cc2ccccc2)c(CN2CCN(Cc3ccccc3)CC2)cc1=O` [Example 93, 1-[(1-Benzyl-5-octadecyloxy-4(1H)-pyridone-2-yl)methyl]-4-benzylpiperazine·dioxlate·1/2 H2 O], the IC50 worked out at 5500 nM.

Turning to `CCCCCCCCCCCCCCCCCCOc1cn(Cc2ccccc2)c(CN2CCN(CCc3ccccc3)CC2)cc1=O` [Example 94, 1-[(1-Benzyl-5-octadecyloxy-4(1H)-pyridone-2-yl)methyl]-4-(2-phenylethyl)piperazine·trihydrochloride·1/2 H2 O], the IC50 turned out to be 2400 nM.

In the case of `CCCCCCCCCCOc1cn(Cc2ccccc2)c(CN2CCN(CCc3ccccc3)CC2)cc1=O` [Example 95, 1-[(1-Benzyl-5-decyloxy-4(1H)-pyridone-2-yl)-methyl]4-(2-phenylethyl)piperazine·dihydrochloride], the IC50 is 4300 nM.

Source of the values: patent US5185352A, “Alkoxy-4(1H)-pyridone derivatives, processes for the preparation thereof and pharmaceutical compositions containing them” (Goedecke Aktiengesellschaft, priority 1988, dated 1993).
